Source: patent US20240159780A1, “PREDICTION OF AMOUNT OF IN VIVO DOPAMINE ETC., AND APPLICATION THEREOF” (Sumitomo Pharma Co., Ltd., priority 2021, published 2024)
Entries after “also recorded” stand apart in the source; their conditions may differ.

Key:
[1] = test system: MPTP-induced PD-LID model rhesus monkeys; experiment: Dyskinesia score and generalized dyskinesia score in MPTP-induced PD-LID model rhesus monkeys; type: in vivo, rhesus monkey
[2] = test system: PD-LID model rats; experiment: Striatal dopamine release by microdialysis in PD-LID model rats; type: in vivo, rat; conditions: levodopa i.p.
Procedure: As a representative experimental model for Parkinson's disease, a rat striatal dopaminergic neuron destruction model is known in which 6-hydroxydopamine (hereinafter sometimes referred to as “6-OHDA”) is locally administered to one side of the brain (6-OHDA unilateral treated rat (6-OHDA injured rat)). Male Wistar rats (12 weeks old, Japan SLC, Inc.) were used to prepare model animals. Desipramine hydrochloride (25 mg/kg; Wako Pure Chemical Industries, Ltd.) was intraperitoneally administered, and 30 minutes after the administration, inhalation anesthesia with isoflurane was performed using a general anesthesia machine for experimental animals. Under isoflurane anesthesia, the rat was fixed in a stereotaxic apparatus, the skin of the head was incised with a surgical scalpel to expose the cranial bone, and the coordinate of bregma, which is the starting point (AP: 0, ML: 0, DV: 0), was confirmed, and the coordinate of the right medial forebrain bundle (AP: −4.4 mm, ML: 1.5 mm, DV: 7.8 mm from bregma) was measured. […]
In order to measure striatal dopamine release, guide cannula implantation into the striatum of PD-LID model rats and chromatography were performed by a method described in a reference (Pharmacol Res Perspect. 2015 June; 3(3): e00142.). […] Using an HPLC-ECD system (EiCOM Co., Ltd.), the amount of dopamine in the collected dialysate was measured. […]

[3] = test system: MPTP-induced PD-LID model rhesus monkeys; experiment: Number of blinks (eye tracking) after L-DOPA in MPTP-induced PD-LID model rhesus monkeys; type: in vivo, rhesus monkey
[4] = L-DOPA 22 mg/kg with Benserazide, oral

O=C1[C@@H]2[C@H]3CC[C@H](C3)[C@@H]2C(=O)N1CCCCN1CCN(c2ncccn2)CC1 [tandospirone]
dyskinesia score ([1]; tandospirone ointment transdermal 19 hours prior to testing, with L-DOPA, vs non-tandospirone administration): decrease
rapid changes and temporal decreases in the dopamine amount in the synaptic cleft in the striatum [2]: suppresses

N[C@@H](Cc1ccc(O)c(O)c1)C(=O)O [L-DOPA, (S)-2-amino-3-(3,4-dihydroxyphenyl) propanoic acid]
time after administration at which the dyskinesia score increased [1, 4]: about 20 minutes
time after administration from which the score of generalized dyskinesia declined [1, 4]: around 150 minutes
time after administration from which the score of generalized dyskinesia increased [1, 4]: 60 min
time after administration of the peak dyskinesia score [1, 4]: 60 min
time after administration of the peak score of generalized dyskinesia [1, 4]: around 90 minutes
decay of the dyskinesia score ([1]; L-DOPA 22 mg/kg with Benserazide, oral, measured for 180 minutes): did not decay until 180 minutes
total number of blinks compared to vehicle ([3]; 30 to 120 minutes after administration (60 to 150 minutes after start of measurement), one individual): tended to increase; also recorded: clear tendency to increase
time after administration from which the number of blinks increased ([3]; L-DOPA 22 mg/kg with Benserazide 1/4 weight, oral, blinks tallied every 3 minutes): about 30 minutes
time of peak of number of blinks with an intermediate duration (0.16≤T<0.18) ([3]; after oral L-DOPA 22 mg/kg, rapid decrease, then gradual increase): around 30 minutes
